As usually defined, the IC50 is the point on the concentration scale where inhibition reaches its midpoint.

The structures appear in SMILES notation.

The target of the assay is T1, recombinant human GR (Homo sapiens, UniProt P04150).
T1 construct: purchased Panvera/Invitrogen P2812 (kit P2893)
T1 sequence (P04150 1-777): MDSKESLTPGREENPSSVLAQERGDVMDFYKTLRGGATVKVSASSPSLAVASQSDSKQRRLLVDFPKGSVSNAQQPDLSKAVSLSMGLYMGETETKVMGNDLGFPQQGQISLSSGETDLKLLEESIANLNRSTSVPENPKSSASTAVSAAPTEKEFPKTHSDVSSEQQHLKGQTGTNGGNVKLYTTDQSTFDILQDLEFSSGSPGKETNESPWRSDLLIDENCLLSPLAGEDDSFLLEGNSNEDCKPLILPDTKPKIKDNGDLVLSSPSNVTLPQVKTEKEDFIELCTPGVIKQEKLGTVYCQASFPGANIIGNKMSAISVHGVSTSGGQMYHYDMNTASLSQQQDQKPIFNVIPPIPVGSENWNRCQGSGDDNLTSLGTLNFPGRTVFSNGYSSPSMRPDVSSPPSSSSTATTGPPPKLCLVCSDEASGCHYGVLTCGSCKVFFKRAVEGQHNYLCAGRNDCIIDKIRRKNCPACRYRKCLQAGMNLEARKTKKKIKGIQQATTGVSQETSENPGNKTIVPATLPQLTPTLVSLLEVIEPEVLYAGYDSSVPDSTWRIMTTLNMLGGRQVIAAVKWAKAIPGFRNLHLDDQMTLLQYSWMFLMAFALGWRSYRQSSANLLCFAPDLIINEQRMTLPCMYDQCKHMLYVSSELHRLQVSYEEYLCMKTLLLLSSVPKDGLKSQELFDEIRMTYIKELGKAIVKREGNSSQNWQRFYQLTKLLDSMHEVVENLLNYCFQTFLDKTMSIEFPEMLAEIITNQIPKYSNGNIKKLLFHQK
Kind of assay: Human Glucocorticoid Receptor (GR) Assay (fluorescence polarization, Panvera/Invitrogen kit). The settings on record: fluorescence polarization; GS Red tracer; 2 hours at room temperature; 100% control 10 μM Dexamethasone; read-out: Inhibition of GR binding, IC50. Format: binding. The gist of the method:
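Fluorescence polarization competition with recombinant GR and GS Red fluorescent ligand plus stabilizing peptide and DTT in potassium phosphate/sodium molybdate/EDTA buffer with DMSO. Incubated 2 hours at room temperature in the dark; 0% control DMSO, 100% control 10 μM dexamethasone.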
For orientation: Polarisation of emitted light reports the rotation of a fluorescent probe.
As to `Cc1ccoc1C(=O)O[C@]1(C(=O)SCCO)CC[C@H]2[C@@H]3CCC4=Cc5c(cnn5-c5ccc(F)cc5)C[C@]4(C)[C@H]3[C@@H](O)C[C@@]21C` [Example 58, (1R,3aS,3bS,10aR,10bS,11S,12aS)-7-(4-Fluorophenyl)-11-hydroxy-1-{[(2-hydroxy-ethyl)thio]carbonyl}-10a,12a-dimethyl-1,2,3,3a,3b,4,5,7,10,10a,10b,11,12,12a-tetradecahydrocyclopenta[5,6]naphtho[1,2-f]indazol-1-yl 3-methylfuran-2-carboxylate], the IC50 is 5.5 nM.

`C[C@]12Cc3cnn(-c4ccc(F)cc4)c3C=C1CC[C@@H]1[C@@H]2[C@@H](O)C[C@@]2(C)[C@H]1CC[C@]2(OC(=O)c1ccno1)C(=O)SCC#N` [Example 59, (1R,3aS,3bS,10aR,10bS,11S,12aS)-1-{[(Cyanomethyl)thio]carbonyl}-7-(4-fluorophenyl)-11-hydroxy-10a,12a-dimethyl-1,2,3,3a,3b,4,5,7,10,10a,10b,11,12,12a-tetradecahydropcyclopenta[5,6]naphtho[1,2-f]indazol-1-yl isoxazole-5-carboxylate]: the IC50 was determined as 3.9 nM.

Regarding `C[C@]12Cc3cnn(-c4ccc(F)cc4)c3C=C1CC[C@@H]1[C@@H]2[C@@H](O)C[C@@]2(C)[C@H]1CC[C@]2(OC(=O)c1ccno1)C(=O)SCF` [Example 60, (1R,3aS,3bS,10aR,10bS,11S,12aS)-1-{[(Fluoromethyl)thio]carbonyl}-7-(4-fluorophenyl)-11-hydroxy-10a,12a-dimethyl-1,2,3,3a,3b,4,5,7,10,10a,10b,11,12,12a-tetradecahydropcyclopenta[5,6]naphtho[1,2]-indazol-1-yl isoxazole-5-carboxylate], the IC50 was 4.5 nM. As for `C[C@]12Cc3cnn(-c4ccc(F)cc4)c3C=C1CC[C@@H]1[C@@H]2[C@@H](O)C[C@@]2(C)[C@H]1CC[C@]2(OC(=O)c1ccno1)C(=O)SCCO` [Example 61, (1R,3aS,3bS,10aR,10bS,11S,12aS)-7-(4-Fluorophenyl)-11-hydroxy-1-{[(2-hydroxy-ethyl)thio]carbonyl}-10a,12a-dimethyl-1,2,3,3a,3b,4,5,7,10,10a,10b. 1,12,12a-tetradecahydrocyclopenta[5,6]naphtho[1,2-f]indazol-1-yl isoxazole-5-carboxylate], the IC50 amounted to 8.3 nM.

Regarding `COCCC(=O)O[C@]1(C(=O)SCC#N)CC[C@H]2[C@@H]3CCC4=Cc5c(cnn5-c5ccc(F)cc5)C[C@]4(C)[C@H]3[C@@H](O)C[C@@]21C` [Example 62, (1R,3aS,3bS,10aR,10bS,11S,12aS)-1-{[(Cyanomethyl)thio]carbonyl}-7-(4-fluorophenyl)-11-hydroxy-10a,12a-dimethyl-1,2,3,3a,3b,4,5,7,10,10a,10b,11,12,12a-tetradecahydrocyclopenta[5,6]naphtho[1,2-f]indazol-1-yl 3-methoxypropanoate], the half-inhibitory concentration (IC50) turned out to be 2.2 nM. Take `COCCC(=O)O[C@]1(C(=O)SCF)CC[C@H]2[C@@H]3CCC4=Cc5c(cnn5-c5ccc(F)cc5)C[C@]4(C)[C@H]3[C@@H](O)C[C@@]21C` [Example 63, (1R,3aS,3bS,10aR,10bS,11S,12aS)-1-{[(Fluoromethyl)thio]carbonyl}-7-(4-fluorophenyl)-11-hydroxy-10a,12a-dimethyl-1,2,3,3a,3b,4,5,7,10,10a,10b,11,12,12a-tetradecahydropcyclopenta[5,6]naphtho[1,2-f]indazol-1-yl 3-methoxypropanoate]: the concentration for half-maximal inhibition (IC50) came to 3.3 nM.

Regarding `CSC(=O)[C@@]1(OC(=O)c2ccco2)CC[C@H]2[C@@H]3CCC4=Cc5c(cnn5-c5ccc(F)cc5)C[C@]4(C)[C@H]3[C@@H](O)C[C@@]21C` [Example 64, (1R,3aS,3bS,10aR,10bS,11S,12aS)-7-(4-Fluorophenyl)-11-hydroxy-10a,12a-dimethyl-1-[(methylthio)carbonyl]-1,2,3,3a,3b,4,5,7,10,10a,10b,11,12,12a-tetradecahydropcyclopenta[5,6]naphtho[1,2-f]indazol-1-yl furan-2-carboxylate], the IC50 worked out at 5.8 nM.

For the origin of these results see patent US8163724B2, “Glucocorticosteroids, processes for their preparation, pharmaceutical compositions containing them and their use in therapy” (AstraZeneca AB, priority 2007, dated 2012).
